Measured values published in patent US9023865B2, “Compounds that are ERK inhibitors” (Merck Sharp & Dohme Corp., priority 2011, dated 2015).

target: Active Human ERK2 (hERK2) (Homo sapiens (Human), UniProt P28482); assay: Active Human ERK2 (hERK2) Activity Assay (IMAP-FP); assay type: biochemical; settings: phosphorylated active hERK2, 30 μM ATP; average; read-out: ERK 2 Human average IC50
Protocol: Assays Active Human ERK2 (hERK2) Activity Assay:
Activated ERK2 activity was determined in an IMAP-FP assay (Molecular Devices). […] The final reaction in each well of 25 μL consists of 0.5 nM hERK2, 900 nM unlabeled peptide, 80 nM labeled-peptide, and 30 μM ATP. Phosphorylation reactions were allowed to proceed for 60 minutes and were immediately quenched by the addition of […] IMAP detection beads (1:1000 dilutions) in IMAP binding buffer (Molecular Devices) with 24 mM NaCl. Plates were read on EnVision reader after 60 minutes binding equilibration using Fluorescence Polarization protocol (Perkin Elmer).

Chain of Active Human ERK2 (hERK2) (P28482 whole entry): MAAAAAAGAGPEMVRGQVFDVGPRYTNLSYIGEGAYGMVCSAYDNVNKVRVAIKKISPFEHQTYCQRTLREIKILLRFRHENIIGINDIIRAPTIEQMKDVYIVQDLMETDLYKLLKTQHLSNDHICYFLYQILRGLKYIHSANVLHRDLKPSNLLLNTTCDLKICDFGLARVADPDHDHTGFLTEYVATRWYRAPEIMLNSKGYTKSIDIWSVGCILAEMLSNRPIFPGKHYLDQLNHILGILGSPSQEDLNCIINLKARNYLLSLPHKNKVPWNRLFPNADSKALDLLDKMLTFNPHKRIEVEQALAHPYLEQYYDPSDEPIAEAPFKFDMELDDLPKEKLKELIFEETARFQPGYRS

SMILES | IC50 [nM]
Cc1cc(-c2n[nH]c3cc(NC(=O)N[C@H](CO)c4cccc5cc[nH]c45)ncc23)ccn1 [Example 362] | 0.288
Cc1cc(-c2n[nH]c3cc(NC(=O)NCc4cccnn4)ncc23)ccn1 [Example 446] | 3.3
Cc1cc(-c2n[nH]c3cc(NC(=O)NCc4c(C)cccc4Cl)ncc23)ccn1 [Example 444] | 1.12
O=C(Nc1cc2[nH]nc(C3CC3)c2cn1)NC1CCCOc2ccccc21 (stereo not shown) [Example 153] | 2.28
Cc1cc(-c2n[nH]c3cc(NC(=O)NCc4cc5ccccc5cn4)ncc23)ccn1 [Example 395] | 7.66
NC(=O)Nc1cc2[nH]nc(-c3ccc(F)cc3)c2cn1 [Example 34, 1-(3-(4-fluorophenyl)-1H-pyrazolo[4,3-c]pyridin-6-yl)urea] | 1.68
Cc1cc(-c2n[nH]c3cc(NC(=O)NCCc4ccccn4)ncc23)ccn1 [Example 47, 1-[3-(2-methylpyridin-4-yl)-1H-pyrazolo[4,3-c]pyridin-6-yl]-3-(2-pyridin-2-ylethyl)urea] | 2.34
Cc1cc(-c2n[nH]c3cc(NC(=O)N[C@H]4CN(C)C[C@@H]4C)ncc23)ccn1 [Example 205] | 15.1
Cc1cc(-c2n[nH]c3cc(NC(=O)NC4CCOc5ccccc54)ncc23)ccn1 (stereo not shown) [Example 532] | 3.52
Cc1cc(-c2n[nH]c3cc(NC(=O)NCc4nc(N)cs4)ncc23)ccn1 [Example 473] | 2.69
COc1ccc(-c2n[nH]c3cc(NC(=O)N[C@H](C)c4ccccc4)ncc23)cc1 [Example 676] | 0.94
Cc1cc(-c2n[nH]c3cc(NC(=O)NCC(c4ccccc4)C4(O)CCOCC4)ncc23)ccn1 (stereo not shown) [Example 385] | 0.939
Cc1cc(-c2n[nH]c3cc(NC(=O)NCc4ccc(F)cn4)ncc23)ccn1 [Example 516] | 2.35
COC[C@@H](NC(=O)Nc1ncc2c(-c3ccnc(C)c3)n[nH]c2c1F)c1ccccc1 [Example 542] | 0.269
C[C@@H](NC(=O)Nc1cc2[nH]nc(-c3ccc(F)cc3)c2cn1)c1ccc(F)c(Cl)c1 [Example 73, 1-[(1R)-1-(3-chloro-4-fluorophenyl)ethyl]-3-[3-(4-fluorophenyl)-1H-pyrazolo[4,3-c]pyridin-6-yl]urea] | 9.34
Cc1cc(-c2n[nH]c3cc(NC(=O)N[C@@H](C)C(=O)O)ncc23)ccn1 [Example 454] | 237
Cc1cc(-c2n[nH]c3cc(NC(=O)NCc4ncon4)ncc23)ccn1 [Example 426] | 5.67

SMILES | IC50 [nM]
O=C(NCC1CCC1)Nc1cc2[nH]nc(-c3ccnc(F)c3)c2cn1 [Example 591] | 1.54
Cc1ccnc(C(C)NC(=O)Nc2cc3[nH]nc(-c4ccnc(C)c4)c3cn2)c1 (stereo not shown) [Example 498] | 2.82
COc1ccccc1CNC(=O)Nc1cc2[nH]nc(-c3ccnc(C)c3)c2cn1 [Example 529] | 0.293
C[C@@H](NC(=O)Nc1cc2[nH]nc(-c3cnc(-n4cccn4)nc3)c2cn1)c1ccccc1 [Example 291] | 4.44
COCCNC(=O)Nc1ncc2c(-c3ccnc(C4CC4)c3)n[nH]c2c1F [Example 610] | 3.12
Cc1cc(-c2n[nH]c3c(Br)c(NC(=O)N[C@H](C)c4ccccc4)ncc23)ccn1 [Example 79, 1-[7-bromo-3-(2-methylpyridin-4-yl)-1H-pyrazolo[4,3-c]pyridin-6-yl]-3-[(1R)-1-phenylethyl]urea] | 34.5
C[C@@H](NC(=O)Nc1cc2[nH]nc(-c3ccc4nn(C)cc4c3)c2cn1)c1ccc(Cl)cc1 [Example 65, 1-[(1R)-1-(4-chlorophenyl)ethyl]-3-[3-(2-methyl-2H-indazol-5-yl)-1H-pyrazolo[4,3-c]pyridin-6-yl]urea] | 0.562
Cc1cc(-c2n[nH]c3cc(NC(=O)N[C@@H]4CN(C)C[C@H]4c4ccccc4)ncc23)ccn1 [Example 582] | 0.234
O=C(NCc1ccccc1)Nc1cc2[nH]nc(C3CC3)c2cn1 [Example 142] | 17.4
C[C@@H](NC(=O)Nc1cc2[nH]nc(CNCC(F)(F)F)c2cn1)c1ccccc1 [Example 561] | 15
Cc1cc(-c2n[nH]c3cc(NC(=O)NC[C@@H]4COCCO4)ncc23)ccn1 [Example 550] | 2.43
Cc1cc(-c2n[nH]c3cc(NC(=O)NCCOc4ccccc4)ncc23)ccn1 [Example 453] | 1.62
Cc1cc(-c2n[nH]c3cc(NC(=O)N[C@H]4CN(C)C[C@@H]4c4ccccc4C(F)(F)F)ncc23)ccn1 [Example 178, 1-((3R,4S)-1-Methyl-4-(2-(trifluoromethyl)phenyl)pyrrolidin-3-yl)-3-(3-(2-methylpyridin-4-yl)-1H-pyrazolo[4,3-c]pyridin-6-yl)urea] | 0.527
Cc1cc(-c2n[nH]c3cc(NC(=O)NC4(c5ccncc5)CC4)ncc23)ccn1 [Example 356] | 130
Cc1cc(-c2n[nH]c3cc(NC(=O)NC(c4cccnc4)C(F)F)ncc23)ccn1 (stereo not shown) [Example 509] | 3.07
Cc1cc(-c2n[nH]c3cc(NC(=O)NCc4ccccc4OCC(F)F)ncc23)ccn1 [Example 525] | 0.358
Cc1cc(-c2n[nH]c3cc(NC(=O)NC4CCCC(O)C4)ncc23)ccn1 (stereo not shown) [Example 380] | 6.18

Other lines, results leading:

IC50 [nM] | SMILES
92 | Cc1cc(-c2n[nH]c3cc(NC(=O)NC4(C#N)CC4)ncc23)ccn1 [Example 201]
4.86 | Cc1cc(-c2n[nH]c3cc(NC(=O)NCCF)ncc23)ccn1 [Example 199]
3.57 | Cc1cc(-c2n[nH]c3cc(NC(=O)NCC4COCCO4)ncc23)ccn1 (stereo not shown) [Example 464]
117 | COC[C@@H](NC(=O)Nc1cc2[nH]nc(C3CC3)c2cn1)c1cc(F)ccn1 [Example 168]
6.78 | CCOC[C@@H](NC(=O)Nc1cc2[nH]nc(-c3cc(C)on3)c2cn1)c1ccccc1 [Example 698]
3.31 | Cc1cc(-c2n[nH]c3cc(NC(=O)NCc4ccc(Cl)cc4F)ncc23)ccn1 [Example 521]
0.746 | COc1ncc(-c2n[nH]c3cc(NC(=O)N[C@H](C)c4ccc(F)cc4)ncc23)cn1 [Example 252]
30.2 | Cc1cc(-c2n[nH]c3cc(NC(=O)NC4(c5ccncc5)CCC4)ncc23)ccn1 [Example 352]
33.7 | Cc1cc(-c2n[nH]c3cc(NC(=O)NCc4nnc(C)s4)ncc23)ccn1 [Example 474]
8.99 | C[C@@H](NC(=O)Nc1cc2[nH]nc(-c3ccn(C4COC4)n3)c2cn1)c1ccccc1 [Example 638]
2.27 | COc1cccc(F)c1CN1CCC[C@@H](NC(=O)Nc2cc3[nH]nc(-c4ccc(C#N)cc4)c3cn2)C1 [Example 655]
320 | Cc1cc(-c2n[nH]c3cc(NC(=O)NC4COC4)ncc23)ccn1 [Example 465]
11.7 | Cc1ccc(-c2n[nH]c3cc(NC(=O)N[C@H](C)c4ccc(F)cc4)ncc23)s1 [Example 248]
0.44 | COc1cc(F)ccc1CNC(=O)Nc1cc2[nH]nc(-c3ccnc(C)c3)c2cn1 [Example 520]
373 | Cc1cc(-c2n[nH]c3cc(NC(=O)NC4CCCC(Oc5ccc(Cl)c(F)c5)C4)ncc23)ccn1 (stereo not shown) [Example 646]
1.58 | Cc1cc(-c2n[nH]c3c(C)c(NC(=O)N[C@H](C)c4ccccc4)ncc23)ccn1 [Example 174, (R)-1-(7-Methyl-3-(2-methylpyridin-4-yl)-1H-pyrazolo[4,3-c]pyridin-6-yl)-3-(1-phenylethyl)urea]

IC50 [nM] | SMILES
10.7 | COCCNC(=O)c1n[nH]c2cc(NC(=O)N[C@H](C)c3ccccc3)ncc12 [Example 116, N-(2-methoxyethyl)-6-({[(1R)-1-phenylethyl]carbamoyl}amino)-1H-pyrazolo[4,3-c]pyridine-3-carboxamide]
66.3 | Cc1cc(-c2n[nH]c3cc(NC(=O)N[C@H]4CN(C)C[C@@H]4c4ccccc4C)ncc23)ccn1 [Example 216, 1-((3R,4S)-1-methyl-4-(o-tolyl)pyrrolidin-3-yl)-3-(3-(2-methylpyridin-4-yl)-1H-pyrazolo[4,3-e]pyridin-6-yl)urea]
520 | COC(=O)[C@H](C)NC(=O)Nc1cc2[nH]nc(-c3ccnc(C)c3)c2cn1 [Example 455]
4.94 | Cc1cc(-c2n[nH]c3cc(NC(=O)NCC(c4ccccc4)N4CCCCC4)ncc23)ccn1 (stereo not shown) [Example 386]
2.08 | Cc1cc(-c2n[nH]c3cc(NC(=O)N[C@@H]4CCSc5ccccc54)ncc23)ccn1 [Example 264]
1.93 | COCCNC(=O)Nc1cc2[nH]nc(-c3ccc(F)cc3)c2cn1 [Example 623, 1-[3-(4-Fluorophenyl)-1H-pyrazolo[4,3-c]pyridin-6-yl]-3-(2-methoxyethyl)urea]
43.2 | CNC(=O)CNC(=O)Nc1cc2[nH]nc(-c3ccnc(C)c3)c2cn1 [Example 186]
125 | Cc1cc(-c2n[nH]c3cc(NC(=O)NCC4(N(C)C)CCC4)ncc23)ccn1 [Example 193]
0.81 | COC[C@@H](NC(=O)Nc1cc2[nH]nc(-c3ccnc(N4CCNCC4)c3)c2cn1)c1ccc(F)cc1 [Example 306]
23.8 | COC[C@@H](NC(=O)Nc1cc2[nH]nc(C3=NOC(C)C3)c2cn1)c1ccccc1 (stereo partly shown) [Example 686]
2.55 | Cc1cc(-c2n[nH]c3cc(NC(=O)NCc4cn[nH]c4)ncc23)ccn1 [Example 420]
1.76 | C[C@@H](NC(=O)Nc1cc2[nH]nc(-c3ccnc(C#N)c3)c2cn1)c1ccc(F)cc1 [Example 258]
2.52 | Cc1cc(-c2n[nH]c3cc(NC(=O)NCc4c[nH]nn4)ncc23)ccn1 [Example 431]
17.6 | CC1=NOC(CNC(=O)Nc2cc3[nH]nc(-c4ccnc(C)c4)c3cn2)C1 (stereo not shown) [Example 191]
1.41 | Cc1cc(-c2n[nH]c3cc(NC(=O)NCC4CCC4)ncc23)ccn1 [Example 574]

same assay, conditions: read-out: AERK2 IC50 (Active human ERK2 Activity Assay)

IC50 [nM] | SMILES
0.2 to 1.7 | NC(=O)Nc1cc2[nH]nc(-c3ccc(F)cc3)c2cn1 [Example 34, 1-(3-(4-fluorophenyl)-1H-pyrazolo[4,3-c]pyridin-6-yl)urea]
0.2 to 1.7 | C[C@@H](NC(=O)Nc1cc2[nH]nc(-c3ccc4nn(C)cc4c3)c2cn1)c1ccc(Cl)cc1 [Example 65, 1-[(1R)-1-(4-chlorophenyl)ethyl]-3-[3-(2-methyl-2H-indazol-5-yl)-1H-pyrazolo[4,3-c]pyridin-6-yl]urea]
